Results: US6875748B2, “Compositions and methods for in vivo delivery of polynucleotide-based therapeutics” (Vical Incorporated, priority 2000, dated 2005)
Values joined by “and” are separate entries in the source; they are usually repeats but may differ in a detail not shown here. Identical values can stand only once. Like-named read-outs stand apart in the source and are kept apart here.

Assays:
mouse quadriceps muscle [1] = experiment: Hematocrit after i.m. injection of mouse erythropoietin plasmid (VR2901, VR2996); assay type: in vivo
Protocol: Hematocrits were measured by centrifugation of blood obtained from the retro-orbital cavity of mice. Blood samples were collected in 75 μl heparinized capillary tubes and analyzed using HemaSTAT II microhematocrit centrifuge (Separation Technology, Inc., Altamonte Springs, Fla.).
The mice were monitored over time for serum hematocrit levels, which correlate with the expression of erythropoeitin.
The mice were monitored over four weeks for serum hematocrit levels, which correlate with the expression of erythropoeitin.
The mice were monitored at days 0, 7, 14, 21, and 28 for serum hematocrit levels, which correlate with the expression of erythropoeitin.
The mice were monitored at days 7, 14, and 28 for serum hematocrit levels, which correlate with the expression of erythropoeitin. Control serum levels were measured before any injections.

mouse quadriceps muscle [2] = experiment: Luciferase expression in mouse quadriceps muscle after i.m. injection of plasmid VR1255 with auxiliary agents; conditions: day 7; for increase of luciferase expression in 154 mM sodium chloride: 0.01% agent in saline versus saline alone
[3] = test system: tibialis anterior muscles of nude mice; experiment: Serum SEAP after injection of plasmid VR3301 into tibialis anterior muscles of nude mice; assay type: in vivo, mouse
Protocol: Briefly, tissues were rapidly collected and frozen, they were combined with and frozen into a lysis buffer, the tissue was then pulverized with a drill bit run in reverse direction, the resulting powder was thawed, and was extracted two times with extraction buffer. Nude mice were injected with VR3301 DNA bilaterally on three consecutive days for a total of 300 μg DNA per mouse.
Sera from nude mice injected with VR3301 were collected at various times post-injection. […] Samples were assayed in duplicate. Plates were sealed, incubated at 65° C. for 30 min and spun for 5 min at 4000 rpm at room temperature. […] The samples were analyzed using a Molecular Devices Opti Max plate reader (Sunnyvale, Calif.). The plate reader was pre-warmed to 37° C. and a standard kinetic program was used to assay the samples at a wavelength of 405 nm for 30 min.
The mice were monitored over time for blood levels of SEAP or proinsulin or for hematocrits. In the case of SEAP, plasmid DNA was injected into the tibialis anterior muscles, and nude mice were used to prevent an immune response to the foreign transgene product.
The mice were monitored for blood levels of SEAP at day 7 post-injection. Plasmid DNA was injected into the tibialis anterior muscles, and nude mice were used to prevent an immune response to the foreign transgene product.

rectus femoris muscle = conditions: for cats with elevated hematocrit: no agent
Description: Two milliliters of DNA were delivered as 1-ml injections into each rectus femoris muscle. Following injection, cats were monitored at 7 day intervals for serum hematocrit levels, which correlate with the expression of erythropoeitin.

mouse quadriceps muscle [4] = experiment: Luciferase expression in mouse quadriceps muscle 7 days after i.m. injection of plasmid VR1223 in salt solutions; assay type: in vivo; parameters: lux: unit: ng/muscle; conditions: for ng Lux per Muscle: 50 μg VR1223 in 50 μl of the solution; for ng Lux per Muscle / ng luciferase per muscle / Fold Saline / ng Lux/Muscle / luciferase in muscle: day 7; for ng luciferase per muscle / ng Lux/Muscle: 50 μg VR1223 in 50 μl; for luciferase in muscle: Example 4, run in parallel; for lux: 7-day luciferase expression, VR1223; for ng luciferase/muscle: average of all 9 experiments; for ng lux/muscle: reproducibility
mouse lung = experiment: Luciferase expression in mouse lung 3 days after intranasal instillation of VR1223 complexed with GAP-DLRIE/DOPE; assay type: in vivo; conditions: day 3; for luciferase expression in lung: 132 μg VR1223 + GAP-DLRIE/DOPE
pH of the salt solutions = assay type: physicochemical
[5] = Osmolarity of the salt solutions; assay type: physicochemical; conditions: for Osm: 150 mM unless otherwise indicated
mouse quadriceps muscle [6] = experiment: Serum human IFN-ω after i.m. injection of plasmid VR4151; assay type: in vivo; conditions: for serum IFN-ω levels: 50 μg VR4151, day 7
Protocol: (§1) Muscle extracts were assayed for β-galactosidase and the serum was assayed for circulating levels of IFN-ω.

mouse quadriceps muscle [7] = experiment: β-galactosidase-stained muscle fibers after i.m. injection of plasmid VR1412; assay type: in vivo; conditions: 50 μg VR1412, day 7, n=10
Protocol: For whole muscle staining, quadriceps were fixed for 3 hours at room temperature in 2% paraformaldehyde in PBS, washed 3 times for 20 min each in PBS and incubated for 18 hours at 37° C. in a solution containing 2 mM MgCl2, 5 mM potassium ferricferrocyanide and 1 mg/ml 5-bromo-4-chloro-3-indoyl-β-D-galactosidase (available from Life Technologies, Inc. (LTI), Gaithersberg, Md.) in PBS. After incubation, the muscles were washed 3 times for 10 min each in 3% dimethyl sulfoxide in PBS and stored in PBS at 4° C. until analysis. […] Sections were collected on 1% gelatin coated glass slides, brought to room temperature and stained for 2 hours at 37° C. in the same reagent as for whole mounts above except that the beta-galactosidase reagent concentration was 200 μg/ml. The sections were then counterstained with Harris hematoxylin in acetic acid, rinsed in tap water, dehydrated and mounted in Permount (Fisher, Fair Lawn, N.J.).
Individual muscle cells were examined for β-galactosidase expression as follows.
Whole quadriceps muscle groups were harvested on day 7. Muscles were snap frozen in OTC medium (n=10 muscles for each group). 10 micron cross-sections were stained with x-gal (substrate for β-gal). Fibers expressing β-gal (stained blue) were counted.

B16F10 tumor cells = experiment: Anti-tumor effect of i.m. mIFN-α plasmid VR4111 in mice bearing subcutaneous B16F10 tumors; assay type: in vivo, mouse; conditions: for tumor volume: 27 days, VR4111; for survival versus blank DNA in saline: p<0.007, Kaplan-Meier
influenza nucleoprotein [8] = conditions: 5 μg VR4700 days 0 and 21, 6 weeks
influenza nucleoprotein [9] = conditions: 9 weeks post-vaccination, versus saline
mouse quadriceps muscle [10] = experiment: β-galactosidase expression in mouse quadriceps muscle after i.m. injection of plasmid VR1418; conditions: for β-galactosidase in muscle: 10 μg VR1418, day 7
Protocol: The luciferase content of the samples was calculated from Relative Light Units using a standard curve of purified firefly luciferase (Analytical Luminescence Laboratory, San Diego, Calif.; Cat. No. 2400), which was diluted in pooled extract from uninjected muscles to control for quenching. Luciferase values were expressed as ng luciferase per muscle. […] A standard curve, prepared in pooled extract from uninjected muscles, was included on each plate using the β-galactosidase enzyme standard included in the kit.
as §1
Quadriceps muscles were injected with 50 μl of each solution containing 10 μg of plasmid VR1418, and the muscles were tested for 7-day expression levels.

[11] = salts at 150 mM, relative to saline
[12] = 150 mM unless otherwise indicated
[13] = listed as 150 mM sodium phosphate

octylphenoxypolyethoxyethanol [NONIDET NP-40]
hematocrit versus 150 mM sodium phosphate alone (mouse quadriceps muscle [1]; 5 μg VR2901, 0.01% agent, all time points): higher hematocrit levels
rise in hematocrit (mouse quadriceps muscle [1]; 5 μg VR2901, after day 14): 10%
increase of luciferase expression in 154 mM sodium chloride (mouse quadriceps muscle [2]): three-fold

octyl phenol ethylene oxide condensate with about 9-10 ethylene oxide units [Triton X-100]
SEAP expression with 100 μg DNA plus agent versus 300 μg DNA in 150 mM sodium phosphate alone ([3]; day 7): nearly equivalent
SEAP expression, fold compared with sodium phosphate alone ([3]; day 7): 1.7 fold
SEAP expression, fold compared with 150 mM sodium phosphate alone ([3]; day 35): 2 fold
mice with anti-β-galactosidase antibody (β-galactosidase; 10 μg VR1412, four weeks): three of the five
mice with anti-β-galactosidase antibody (β-galactosidase; 10 μg VR1412, ten weeks): four of the five
period of elevated hematocrit (rectus femoris muscle; group 4): > 40 days
increase of luciferase expression in 154 mM sodium chloride (mouse quadriceps muscle [2]): six-fold

O [Double-distilled water, reference compound]
ng Lux per Muscle (mouse quadriceps muscle [4]): 4 ng per Muscle
ng luciferase per muscle (mouse quadriceps muscle [4]): 4 ng luciferase per muscle
luciferase expression, times lower than saline (mouse quadriceps muscle [4]; VR1223, day 7): 25 times
Fold Saline (mouse quadriceps muscle [4]; luciferase expression relative to saline): 0.03 Fold
luciferase expression in lung (mouse lung): 0.94 ng lux/lung

O=P(O)(O)O [Sodium Phosphate]
ng luciferase per muscle (mouse quadriceps muscle [4]): 386 ng luciferase per muscle
ng Lux/Muscle (mouse quadriceps muscle [4]; salts at 150 mM): 481 ng/Muscle
luciferase expression compared with saline (words) (mouse quadriceps muscle [4]; 80 mM, 100 mM, 150 mM and 200 mM sodium phosphate, p<0.05): significantly higher than saline
luciferase in muscle, fold over saline (mouse quadriceps muscle [4]; Example 4, day 7): 4.8 fold
luciferase in muscle (mouse quadriceps muscle [4]): 769 ng/muscle
enhancement over saline (mouse quadriceps muscle [4]; Exp. #1 (highest)): 7.3 fold
enhancement over saline (mouse quadriceps muscle [4]; Exp. #9 (lowest)): 2.5 fold
lux (mouse quadriceps muscle [4]; Table III-A): 481
lux (mouse quadriceps muscle [4]; Table III-A, listed as 50 mM Sodium Phosphate): 254
lux (mouse quadriceps muscle [4]; Table III-A, listed as 100 mM Sodium Phosphate): 270
lux (mouse quadriceps muscle [4]; Table III-A, listed as 150 mM Sodium Phosphate): 481
lux (mouse quadriceps muscle [4]; Table III-B, listed as 50 mM Sodium Phosphate): 254
lux (mouse quadriceps muscle [4]; Table III-B, listed as 100 mM Sodium Phosphate): 270
lux (mouse quadriceps muscle [4]; Table III-B, listed as 150 mM Sodium Phosphate): 481
luciferase expression, fold over saline (mouse quadriceps muscle [4]; VR1223, day 7, listed as 50 mM sodium phosphate): 2.1 fold
luciferase expression, fold over saline (mouse quadriceps muscle [4]; VR1223, day 7, listed as 100 mM sodium phosphate): 2.3 fold
luciferase expression, fold over saline (mouse quadriceps muscle [4]; VR1223, day 7, listed as 150 mM sodium phosphate): 4.3 fold and 4 fold
average enhancement over saline (mouse quadriceps muscle [4]; all 9 experiments): 4.1 fold
ng luciferase/muscle (mouse quadriceps muscle [4]): 490 ng luciferase/muscle
ng lux/muscle (mouse quadriceps muscle [4]; Exp. #1): 362 ng lux/muscle
ng lux/muscle (mouse quadriceps muscle [4]; Exp. #9): 384 ng lux/muscle
Fold Saline (mouse quadriceps muscle [4]; [11]): 4.0 Fold
luciferase expression compared with saline (words) (mouse quadriceps muscle [4]; sodium phosphate below 40 mM or above 300 mM): equal to or lower than those seen with saline
pH (pH of the salt solutions; [12]): 7.2
pH (pH of the salt solutions; 150 mM unless otherwise indicated, listed as 50 mM Sodium Phosphate): 7.2
pH (pH of the salt solutions; 150 mM unless otherwise indicated, listed as 100 mM Sodium Phosphate): 7.2
pH (pH of the salt solutions; 150 mM unless otherwise indicated, listed as 150 mM Sodium Phosphate): 7.2
Osm ([5]; listed as 50 mM Sodium Phosphate): 83 mmol/kg
Osm ([5]; listed as 100 mM Sodium Phosphate): 232 mmol/kg
Osm ([5]; listed as 150 mM Sodium Phosphate): 308 mmol/kg
osmolarity ([5]; listed as 50 mM sodium phosphate): 83 mmol/kg
osmolarity ([5]; listed as 100 mM sodium phosphate): 270 mmol/kg
osmolarity [5, 13]: 310 mmol/kg
serum IFN-ω levels (mouse quadriceps muscle [6]): 0.35 ng ml serum
serum IFN-ω levels, fold over saline (mouse quadriceps muscle [6]; day 7): 2.5 fold
hematocrit versus plasmid DNA in saline (mouse quadriceps muscle [1]; 10 μg or 2.5 μg VR2901, four weeks): higher hematocrit levels
β-galactosidase-positive myofiber cells (mouse quadriceps muscle [7]): 186+/−43 myofiber cells/muscle section
luciferase expression in lung (mouse lung; listed as 2.5 mM sodium phosphate): 5.2 ng lux/lung
luciferase expression in lung (mouse lung; [13]): 0.22 ng lux/lung
luciferase expression in lung compared with water (mouse lung): enhanced compared with water, but not as much as with 2.5 mM sodium phosphate
luciferase expression in lung, fold compared with water (mouse lung): 5.5 fold
tumor volume (B16F10 tumor cells): 955 mm^3
tumor growth versus blank DNA controls (B16F10 tumor cells; VR4111 100 μg i.m., up to 22 days): lower rate of tumor growth
survival versus blank DNA in saline (B16F10 tumor cells): statistically significant survival difference
mice surviving (B16F10 tumor cells; to day 41, VR4111): 4 out of 10
serum anti-NP antibody titers (influenza nucleoprotein [8]): enhanced serum anti-NP antibody titers compared with saline solution
anti-NP specific CTL activity (influenza nucleoprotein [9]): statistically similar
mice with anti-β-galactosidase antibody (β-galactosidase; 10 μg VR1412, four weeks): none of the mice
mice with anti-β-galactosidase antibody (β-galactosidase; 10 μg VR1412, two weeks): none of the mice
cats with elevated hematocrit (rectus femoris muscle; group 3, 1 mg/ml DNA): one cat
cats with elevated hematocrit (rectus femoris muscle; groups 1 and 2, 5 and 3 mg/ml DNA): No cats
β-galactosidase in muscle (mouse quadriceps muscle [10]): 9.8 ng/muscle
optimal molar concentration for β-galactosidase expression (mouse quadriceps muscle [10]; 10 μg VR1418, day 7, data not shown): 150 mM
β-galactosidase in muscle, fold over saline (mouse quadriceps muscle [10]; day 7): 3.3 fold
Average μg luciferase muscle (mouse quadriceps muscle [2]; 50 μg VR1255 in 50 μl 150 mM sodium phosphate with added agents): 0.37 µg

[Cl-].[Na+] [Sodium Chloride, reference compound]
ng Lux per Muscle (mouse quadriceps muscle [4]; listed as 100 mM Sodium Chloride): 112 ng per Muscle
ng Lux per Muscle (mouse quadriceps muscle [4]; listed as 150 mM Sodium Chloride (saline)): 119 ng per Muscle
ng luciferase per muscle (mouse quadriceps muscle [4]; listed as 100 mM NaCl): 112 ng luciferase per muscle
ng luciferase per muscle (mouse quadriceps muscle [4]; listed as saline): 119 ng luciferase per muscle and 89 ng luciferase per muscle
ng Lux/Muscle (mouse quadriceps muscle [4]; salts at 150 mM): 119 ng/Muscle
luciferase in muscle (mouse quadriceps muscle [4]): 159 ng/muscle
lux (mouse quadriceps muscle [4]; Table III-A): 119
lux (mouse quadriceps muscle [4]; Table III-A, listed as 100 mM NaCl): 112
lux (mouse quadriceps muscle [4]; Table III-A, listed as 150 mM NaCl (Saline)): 119
lux (mouse quadriceps muscle [4]; Table III-B, listed as 100 mM NaCl): 112
lux (mouse quadriceps muscle [4]; Table III-B, listed as 150 mM NaCl (Saline)): 119
ng luciferase/muscle (mouse quadriceps muscle [4]): 120 ng luciferase/muscle
Fold Saline (mouse quadriceps muscle [4]; luciferase expression relative to saline, listed as 100 mM Sodium Chloride): 0.9 Fold
Fold Saline (mouse quadriceps muscle [4]; luciferase expression relative to saline, listed as 150 mM Sodium Chloride (saline)): 1.0 Fold
ng lux/muscle (mouse quadriceps muscle [4]; Exp. #1): 49 ng lux/muscle
ng lux/muscle (mouse quadriceps muscle [4]; Exp. #9): 156 ng lux/muscle
Fold Saline (mouse quadriceps muscle [4]; [11]): 1.0 Fold
pH (pH of the salt solutions): 5.5
pH (pH of the salt solutions; [12]): 5.5
Osm ([5]; listed as 100 mM NaCl): 215 mmol/kg
Osm ([5]; listed as 150 mM NaCl (Saline)): 310 mmol/kg
osmolarity ([5]; listed as saline): 310 mmol/kg and 308 mmol/kg
serum IFN-ω levels (mouse quadriceps muscle [6]): 0.14 ng ml serum
β-galactosidase-positive myofiber cells (mouse quadriceps muscle [7]): 108+/−21 myofiber cells/muscle section
luciferase expression in lung (mouse lung): 0.14 ng lux/lung
tumor volume (B16F10 tumor cells): 2069 mm^3
survival versus blank DNA in saline (B16F10 tumor cells): statistically significant survival difference
mice surviving (B16F10 tumor cells; to day 38, VR4111): 2 out of 10
β-galactosidase in muscle (mouse quadriceps muscle [10]): 3.0 ng/muscle

O=C([O-])CC(O)(CC(=O)[O-])C(=O)[O-].[Na+].[Na+].[Na+] [Sodium Citrate]
ng Lux/Muscle (mouse quadriceps muscle [4]; salts at 150 mM): 90 ng/Muscle
luciferase expression compared with saline (words) (mouse quadriceps muscle [4]; 150 mM solutions, VR1223, day 7, listed as 150 mM sodium citrate): no ability to enhance
luciferase expression compared with saline (words) (mouse quadriceps muscle [4]; 150 mM solutions, VR1223, day 7, listed as Sodium citrate): same luciferase expression as saline
luciferase expression compared with saline (words) (mouse quadriceps muscle [4]; 150 mM solutions, VR1223, day 7, listed as sodium citrate): the same as with saline
lux (mouse quadriceps muscle [4]; Table III-A): 108
lux (mouse quadriceps muscle [4]; Table III-A, listed as 50 mM Sodium Citrate): 83
lux (mouse quadriceps muscle [4]; Table III-B): 108
lux (mouse quadriceps muscle [4]; Table III-B, listed as 50 mM Sodium Citrate): 83
Fold Saline (mouse quadriceps muscle [4]; [11]): <0.1 Fold
pH (pH of the salt solutions; [12]): 7.5
osmolarity [5]: 394 mmol/kg
Osm [5]: 394 mmol/kg
Osm ([5]; listed as 50 mM Sodium Citrate): 164 mmol/kg
